Reference: patent US10004718B2, “Erythropoietin expression promoter” (TOHOKU UNIVERSITY, priority 2012, dated 2018)

Tests used:
ISN-1e cells = assay: ATP production in islet of Langerhans-derived ISN-1e cells (insulin secretion); assay type: cell-based, rat; details: compound 0.03 to 10 μM, 3 hours
Procedure: The ISN-1e cells were seeded at 2×10^5 cells/well to a 96-well cell culture plate and then cultured overnight. Compound #4 was mixed at each concentration (10, 3, 1, 0.3, 0.1, and 0.03 μM) into RPMI11640 common medium 2. After further culture for 3 hours, the concentration of ATP produced in the medium was measured using ATP Assay Reagent “of Cells” (manufactured by Toyo B-Net Co., Ltd.) and GloMa 96 Microplate Luminometer (manufactured by Promega K.K.). ISN-1e cells cultured in the absence of the compound (DMSO added [1%]) (“control” of FIG. 16) and ISN-1e cells cultured in the presence of an HIF activator (FG-4592 [10, 3, 1, 0.3, and 0.1 μM]) were used as controls.

[1] = Plasma concentration in mice after tail vein administration (LC/MS/MS); assay type: in vivo, mouse
Procedure: Compound #4 was administered alone to the tail veins of 3 mice (C57BL/6N 8 W, male, 21-25 g). 30 minutes, 1 hour, and 6 hours after the administration, each mouse was cervically dislocated, and 500 μl of blood was collected from the heart. Then, an anticoagulant (10 μl of heparin) was added thereto, and the resulting blood was centrifuged (12000 rpm×20 min, 4° C.) to isolate plasma. DMSO (57 μl) was administered alone to the tail veins of mice, which were in turn used as controls.
The plasma concentration of the compound #4 was quantified using LC/MS/MS constituted by TSQ Quantum Ultra (manufactured by Thermo Fisher Scientific Inc.) and NANOSPACE SI-2 (manufactured by Shiseido Co., Ltd.). Conditions for the selected reaction monitoring (SRM) method of the compound #4 or 2-methyl-5-([2-naphthylamino]carbonyl)-3-thienyl)acetic acid used as an internal standard (hereinafter, referred to as an “internal standard compound”) are “m/z 311.1>116.0 (collision energy, CE=24)” and “m/z 324.1>280.0 (CE=14)”. “Xbridge C18 (150 mm×2.1 mm i.d., 3.5 μm particle size)” was selected as an analytical column. […] The compound #4 and the internal standard compound were detected 8.51 and 9.00 minutes, respectively (upper column of FIG. 10). […] The sample (1 μl) was introduced through a filter to LC/MS/MS to quantify the plasma concentration (μg/ml) of the compound #4 (lower column of FIG. 10).

With `O=C(CC(C(=O)O)c1c[nH]c2ccccc12)c1ccc(F)cc1` (stereo not drawn) [compound #4, 4-(4-Fluorophenyl)-2-(1H-indol-3-yl)-4-oxo-butanoic acid] as the molecule, how does the “ATP concentration in the ISN-1e cells relative to the control” value (ISN-1e cells) read?
The value was “two or more times relative to the control”.

And the “time after administration up to which the compound is detected in plasma” value [1]?
The value was “at least 6 hours”.

What about the detection in plasma ([1]; 30 minutes after the administration) of the same molecule?
The detection in plasma was “detected at a high level”.
